Columns and labels:
[1] = system: rodent anxiety models; details: in vivo; cited from earlier work
[2] = Metabolic stability in human liver microsomes; assay type: in vitro ADME; details: for % Parent Remaining (30 min) Ave ± SD: 2.0 mg/mL human liver microsomes, 2 mM NADPH, pH 7.4, 37° C., average of 3 experiments
Description: Human liver microsomes (20 mg/mL) were available from Xenotech, LLC (Lenexa, Kans.). β-nicotinamide adenine dinucleotide phosphate, reduced form (NADPH), magnesium chloride (MgCl2), and dimethyl sulfoxide (DMSO) are available from Sigma-Aldrich.
7.5 mM stock solutions of test compound 102 as well as of NS11394 were prepared in DMSO. The 7.5 mM stock solutions were diluted to 12.5 in acetonitrile (ACN). The 20 mg/mL human liver microsomes were diluted to 2.5 mg/mL in 0.1 M potassium phosphate buffer, pH 7.4, containing 3 mM MgCl2. The diluted microsomes were added to wells of a 96-well deep-well polypropylene plate in triplicate. A […] aliquot of the 12.5 test compound 102 was added to the microsomes and the mixture was pre-warmed for 10 minutes. Reactions were initiated by addition of pre-warmed NADPH solution. The final reaction volume was 0.5 mL and contained 2.0 mg/mL human liver microsomes, 0.25 test compound, and 2 mM NADPH in 0.1 M potassium phosphate buffer, pH 7.4, and 3 mM MgCl2. The reaction mixtures were incubated at 37° C., and […] aliquots were removed at 0, 5, 10, 20, and 30 minutes and added to shallow-well 96-well plates which contain […] of ice-cold ACN with internal standard to stop the reactions. The plates were stored at 4° C. for 20 minutes after which […] of water was added to the wells of the plate before centrifugation to pellet precipitated proteins. Supernatants were transferred to another 96-well plate and analyzed for amounts of parent remaining by LC-MS/MS using an AB SCIEX QTRAP® 5500. Testing was done in triplicate.
The in vitro t1/2s for test compounds were calculated from the slopes of the linear regression of % parent remaining (ln) vs incubation time relationship: in vitro t1/2=0.693/k k=−[slope of linear regression of % parent remaining (ln) vs incubation time]. Data analysis was performed using Microsoft Excel Software.
The testing was done in triplicate and the values shown in the table reflect the average of 3 experiments. […]

[3] = system: inflammatory and neuropathic pain-like behaviors in animal models; details: cited from earlier work
[4] = target: T1, GABAA α3 receptors (Homo sapiens, UniProt P18507+P34903); details: cited from earlier work
T1 sequence (P34903 29-492): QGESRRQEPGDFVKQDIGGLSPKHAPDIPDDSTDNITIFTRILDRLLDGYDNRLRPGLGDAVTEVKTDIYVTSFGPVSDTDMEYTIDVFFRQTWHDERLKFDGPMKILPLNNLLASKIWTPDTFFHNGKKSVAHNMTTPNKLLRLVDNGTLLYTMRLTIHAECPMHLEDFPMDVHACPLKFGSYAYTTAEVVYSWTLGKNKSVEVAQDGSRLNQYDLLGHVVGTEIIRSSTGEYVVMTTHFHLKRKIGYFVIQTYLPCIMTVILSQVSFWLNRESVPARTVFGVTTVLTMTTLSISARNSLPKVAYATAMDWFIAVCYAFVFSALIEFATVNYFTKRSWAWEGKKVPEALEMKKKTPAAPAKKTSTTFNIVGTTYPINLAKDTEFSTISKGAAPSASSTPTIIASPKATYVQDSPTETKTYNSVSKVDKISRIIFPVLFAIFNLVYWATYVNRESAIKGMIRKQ
T1 sequence (P18507 40-467 limits assumed): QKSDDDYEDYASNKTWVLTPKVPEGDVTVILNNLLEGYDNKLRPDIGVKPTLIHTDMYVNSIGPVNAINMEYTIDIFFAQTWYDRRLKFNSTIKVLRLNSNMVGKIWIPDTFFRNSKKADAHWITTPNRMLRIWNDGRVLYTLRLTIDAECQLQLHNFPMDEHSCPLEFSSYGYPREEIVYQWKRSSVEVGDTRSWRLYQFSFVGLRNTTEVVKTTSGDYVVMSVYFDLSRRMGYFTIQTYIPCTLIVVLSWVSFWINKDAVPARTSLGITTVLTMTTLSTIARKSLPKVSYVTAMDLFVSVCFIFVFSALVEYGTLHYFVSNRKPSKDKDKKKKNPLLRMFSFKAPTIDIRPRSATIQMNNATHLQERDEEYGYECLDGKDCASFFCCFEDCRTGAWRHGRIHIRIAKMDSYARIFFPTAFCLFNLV
T1 sequence (P47870 25-512 partner limits assumed): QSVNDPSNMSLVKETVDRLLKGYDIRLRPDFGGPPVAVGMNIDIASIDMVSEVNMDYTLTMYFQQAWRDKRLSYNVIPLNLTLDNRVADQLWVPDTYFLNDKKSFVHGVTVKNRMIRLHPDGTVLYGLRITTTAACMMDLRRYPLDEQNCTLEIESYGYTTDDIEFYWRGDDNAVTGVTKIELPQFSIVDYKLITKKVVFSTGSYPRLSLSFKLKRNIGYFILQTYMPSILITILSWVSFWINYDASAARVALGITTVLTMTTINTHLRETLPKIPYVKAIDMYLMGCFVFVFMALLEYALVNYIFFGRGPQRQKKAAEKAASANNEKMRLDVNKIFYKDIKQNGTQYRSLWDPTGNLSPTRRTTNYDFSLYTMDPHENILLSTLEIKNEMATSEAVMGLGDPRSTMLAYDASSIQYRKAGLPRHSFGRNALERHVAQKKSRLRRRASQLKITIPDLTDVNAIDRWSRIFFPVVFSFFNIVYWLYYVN

[5] = animal models, oral administration

Structure (SMILES) | efficacy in rodent anxiety models [1] | % Parent Remaining (30 min) Ave ± SD [2] [%] | half-life ([2]; human, human liver microsomes, pH 7.4, in vitro t1/2 from linear regression of ln % parent remaining vs incubation time, NC = not calculable due to <20% metabolism in HLM, read-out: t1/2 (min) Ave ± SD) [min] | reversal of inflammatory and neuropathic pain-like behaviors [3, 5] | tolerability [3, 5] | dependence issues ([3]; in vivo) | efficacy at GABAA α3 receptors [4]
CC(C)(O)c1ccc2c(c1)ncn2-c1cccc(-c2ccccc2C#N)c1 [NS11394, 3′-[5-(1-hydroxy-1-methylethyl)-1H-benzimidazol-1-yl]biphenyl-2-carbonitrile] | potent and highly effective | 77 ± 3.7 | 95 ± 35 | completely reverse | well tolerated | No dependence issues were observed | high efficacy
[2H]C([2H])([2H])C(O)(c1ccc2c(c1)ncn2-c1cccc(-c2ccccc2C#N)c1)C([2H])([2H])[2H] [Compound 102, 3′-(5-(2-Hydroxy-1,1,1,3,3,3-d6-propan-2-yl)-1H-benzo[d]imidazol-1-yl)biphenyl-2-carbonitrile] |  | 101 ± 8.7 |  |  |  |  | 

Reference: patent US8278460B2, “Substituted benzimidazoles” (Concert Pharmaceuticals, Inc., priority 2009, dated 2012)
